Data as given in patent US20090281036A1, “FUSION PEPTIDE FOR INHIBITING INTERACTION OF NEURONAL NMDA RECEPTOR (NMDAR) AND NMDAR INTERACTING PROTEINS” (priority 2006, published 2009).
“Also recorded” adds a separate entry of the source. Where no end group is shown, it is not given here. [ ]: non-standard residue; d: D form.

How the values were obtained:
Rat cortical neurons [1] = experiment: Duration of neuroprotection afforded by TAT-NR2B9c in the face of excitotoxic insults (NMDA-induced cell death, pyknotic nuclei as % of total); type: cell-based; conditions: for significant protection (duration after washout): peptide 10 μM for 1 hr, then washout
Procedure: Rat cortical neurons, taken from E21 rats, were cultured for 7-9 days in vitro in Neurobasal-A medium+B-27 supplement (both invitrogen), 1 mM glutamine, +50 units/ml penicillin, 50 μg/ml streptomycin. • 1. At varying times prior to compound exposure, neurons were removed from Neurobasal-A based culture medium, and placed into “transfection medium” (TM; Bading et al. (1993), Science 260, 181-186): 10% (Minimum Essential Medium, invitrogen (21090022), containing Earles salt, but no L-glutamine), 90% Salt-Glucose-Glycine (SGG) medium SGG: 114 mM NaCl, 0.219% NaHCO3, 5.292 mM KCl, 1 mM MgCl2, 2 mM CaCl2, 10 mM HEPES, 1 mM Glycine, 30 mM Glucose, 0.5 mM sodium pyruvate, 0.1% Phenol Red, insulintransferrin-selenite supplement (Sigma, 7.5 μg insulin/ml; 7.5 μg transferrin/ml and 7.5 ng sodium selenite/ml); final osmolarity 325 mosm/l). All subsequent steps took place in TM. • 2. Neurons were then exposed to inventive fusion peptides at 10 μM for 1 hr. (particularly TAT-NR2B9c peptides in L-form (L-TAT-L-NR2B9c sequence YGRKKRRQRRR-KLSSIESDV (SEQ ID NO: 32), identical to US 20030050243) and their D-form (D-TAT-D-NR2B9c, sequence vdseisslk-rrrqrrkkrgyin (SEQ ID NO: 33))) • 3. After 1 hr neurons were washed once in TM to remove peptide. • 4. After a varying period of time, neurons were exposed to NMDA at either 20 or 40 μM for 1 hr, after which neurons are placed in TM for 24 h. • 5. Neurons were fixed (3% paraformaldehyde) and stained (DAPI, 4′,6-Diamidino-2-phenylindole). Number of pyknotic nuclei as a % of total is counted. Experiments were performed in triplicate.

Rat cortical neurons [2] = experiment: Duration of neuroprotection afforded by (Arg)8-NR2B9c in the face of excitotoxic insults (NMDA-induced cell death, pyknotic nuclei as % of total); type: cell-based
Procedure: Rat cortical neurons, taken from E21 rats, were cultured for 7-9 days in vitro in Neurobasal-A medium+B-27 supplement (both Invitrogen), 1 mM glutamine, +50 units/ml penicillin, 50 μg/ml streptomycin • 1. At varying times prior to peptide exposure, neurons were removed from Neurobasal-A based culture medium, and placed into TM (see above) with the inclusion of Insulin-transferrin-selenite supplement (Sigma). All subsequent steps took place in TM (see above). • 2. Neurons were then exposed to inventive fusion peptides at 10 μM for 1 hr. (particularly (Arg)8-NR2B9c peptides in D-form (D-TAT-D-NR2B9c, sequence vdseisslk-rrrrrrrr (SEQ ID NO: 35)) and also L-form (SEQ ID NO: 34)) • 3. After 1 hr neurons were washed once in TM to remove peptide. • 4. After a varying period of time, neurons were exposed to NMDA for 1 hr, after which neurons are placed in TM for 24 h. • 5. Neurons were fixed (3% paraformaldehyde) and stained (DAPI 4′,6-Diamidino-2-phenylindole). The number of pyknotic nuclei as a % of total was counted. Experiments were performed in triplicate.

## YGRKKRRQRRRKLSSIESDV (Description of sequence L-TAT-L-NR2B9c sequence) [comparative compound, identical to US 20030050243, reference compound]
Rat cortical neurons [1]; 40 μM NMDA, FIG. 2
  significant protection (duration after washout): 1 h

## vdseisslk-rrrqrrkkrgy ([dV][dD][dS][dE][dI][dS][dS][dL][dK][dR][dR][dR][dQ][dR][dR][dK][dK][dR]G[dY]-NH2; N-terminus assumed; SMILES CC[C@@H](C)[C@@H](NC(=O)[C@@H](CCC(=O)O)NC(=O)[C@@H](CO)NC(=O)[C@@H](CC(=O)O)NC(=O)[C@H](N)C(C)C)C(=O)N[C@H](CO)C(=O)N[C@H](CO)C(=O)N[C@H](CC(C)C)C(=O)N[C@H](CCCCN)C(=O)N[C@H](CCCNC(=N)N)C(=O)N[C@H](CCCNC(=N)N)C(=O)N[C@H](CCCNC(=N)N)C(=O)N[C@H](CCC(N)=O)C(=O)N[C@H](CCCNC(=N)N)C(=O)N[C@H](CCCNC(=N)N)C(=O)N[C@H](CCCCN)C(=O)N[C@H](CCCCN)C(=O)N[C@H](CCCNC(=N)N)C(=O)NCC(=O)N[C@H](Cc1ccc(O)cc1)C(N)=O) [D-TAT-D-NR2B9c, inventive fusion peptide of D-TAT transporter and D-NR2B9c]
Rat cortical neurons [1]; 20 μM NMDA, FIG. 1
  efficacy (lowered cell death rate %) versus comparative compound L-TAT-L-NR2B9c: at least equal, but predominantly significantly increased efficacy
  gap between peptide incubation and NMDA addition at which the positive effect shows: ≥ 8 h
Rat cortical neurons [1]; 40 μM NMDA, FIG. 2
  efficacy (lowered cell death rate %) versus comparative compound L-TAT-L-NR2B9c: at least equal, but predominantly significantly increased efficacy
  time window in which the remarkable positive effect becomes apparent: less than 24 h
  significant protection (duration after washout): up to 24 hours

## vdseisslk-rrrrrrrr ([dV][dD][dS][dE][dI][dS][dS][dL][dK][dR][dR][dR][dR][dR][dR][dR][dR]) [D-(Arg)8-D-NR2B9c, inventive fusion peptide of D-(Arg)8 transporter and D-NR2B9c]
Rat cortical neurons [2]; 20 μM NMDA, FIG. 3
  efficacy (lowered cell death rate %) versus comparative compound L-(Arg)8-L-NR2B9c: at least equal, but predominantly significantly increased efficacy
Rat cortical neurons [2]; 20 μM NMDA, peptide 10 μM for 1 hr, then washout, FIG. 3
  superior neuroprotection after washout of the peptide (duration): up to 8 hours
Rat cortical neurons [2]; 40 μM NMDA, up to the 8 hr time point, FIG. 4
  efficacy (lowered cell death rate %) versus comparative compound L-(Arg)8-L-NR2B9c: at least equal, but predominantly significant increased efficacies; also recorded: equal to better protective effects
Rat cortical neurons [2]; overall, 20 and 40 μM NMDA
  performance compared with D-TAT-D-NR2B9c: performs similar to D-TAT-D-NR2B9c (SEQ ID NO: 33)), albeit with a shorter duration of neuroprotective activity
